Literature values in patent publication US20180000940A1, “INJECTABLE FORMULATIONS OF PARACETAMOL” (TROIKAA PHARMACEUTICALS LIMITED, priority 2014, published 2018).

Details: solution no 20: 30% propylene-glycol, 40% polyethylene-glycol 400, 30% water; 20° C.

CC(=O)Nc1ccc(O)cc1 [paracetamol, Paracetamol]
Amount of paracetamol that can be dissolved: about 200 mg/ml
